Laboratory results published in PMC11445189 (Frontiers in Toxicology, 2024).
Marks after values point to notes of the source that are not given here.

How the values were obtained:
zebrafish embryos [1] = experiment: Single toxicity test for zebrafish embryos (ECx); type: in vivo; conditions: for EC50: Danio rerio, 144 h, read-out: EC50 (95% CI); for EC50 / EC5 (95% CI) / EC15 (95% CI) / EC25 (95% CI): embryonic toxicity (lethality + abnormality), embryo-larva stage, 6 days exposure, probit; for toxicity to zebrafish embryos, individually: at high concentrations, 500 and 1,000 μg/mL
Protocol: (§1) Zebrafish embryos were obtained from adult zebrafish continuously sub-cultured in Korea Institute Toxicology Laboratory, Republic of Korea and were maintained at 26°C ± 1°C in a climate chamber (16 h daylight: 8 h darkness) until use for toxicity tests ([Park et al., 2022]). […] At 6 days after exposure, embryonic toxicity (%) was scored as follows: [embryonic toxicity (%) = lethality (dead embryo + dead larva) + abnormality (unhatched eggs + abnormal larva)/initial embryos × 100]. Developmental abnormality of zebrafish was investigated based on apical phenotypic observation, such as coagulated embryos, lack of somite formation, non-detachment of the tail, and lack of heartbeat for 6 days after exposure ([OECD, 2013]). Embryonic toxicity (%) was used for estimating the effective concentration values (ECx) for each chemical and 95% confidence limits, by concentration-response curves (CETIS program version 1.8.7.15, Tidepool Scientific Software, United States) ([Park et al., 2022]).

zebrafish embryos [2] = experiment: Realistic mixture toxicity test, embryonic toxicity; type: in vivo; conditions: single chemical 10 ng/mL, 6 days after exposure
Protocol: as §1
To verify the developmental effects in zebrafish embryos caused by exposure to realistic mixtures, mixture toxicity tests with zebrafish embryos were performed at a range of environmentally relevant concentrations, and three exposure concentrations at a 1:1 mixing ratio (i.e., 1, 10, and 100 ng/mL of each chemical). […]

cyp1a1 = experiment: qRT-PCR transcriptional alteration in zebrafish embryos; type: in vivo; conditions: single chemical 10 ng/mL, 6 days, normalized to β-actin
Protocol: (§2) To verify the developmental effects in zebrafish embryos caused by exposure to realistic mixtures, mixture toxicity tests with zebrafish embryos were performed at a range of environmentally relevant concentrations, and three exposure concentrations at a 1:1 mixing ratio (i.e., 1, 10, and 100 ng/mL of each chemical). […] Realistic mixture toxicity tests using zebrafish embryos were performed under the same conditions as the single-toxicity tests.
(§3) To examine the transcriptional alteration of target genes linked to zebrafish embryonic development, The total RNA from 20 zebrafish embryos was extracted using a RNeasy Mini kit (Qiagen, Hilden, Germany), following the manufacturer’s instructions. The total RNA concentration was measured spectrophoto-metrically at 260/280 nm using a Gen5™ spectrophotometer (BioTek®, Winooski, VT, United States). […]
(§4) The primer sequences for target genes were designed to use for quantitative real-time polymerase chain reaction (qRT–PCR): namely aryl hydrocarbon receptor 2 (ahr2), cytochrome P450 monooxygenases (i.e., cyp1a1 and cyp1b1), nuclear factor erythroid 2-related factors (i.e., nrf1a and nrf2a), tumor suppressor gene (p53), thyroid stimulating hormone beta subunit (tsh-β), and thyroid hormone receptors (i.e., thraa and thrb) (Supplementary Table S1) ([Fan et al., 2018]; [Liu et al., 2011]; [Ren et al., 2020]; [Williams et al., 2013]). […]

cyp1b1 = experiment: as above; type: in vivo; conditions: single chemical 10 ng/mL, 6 days, normalized to β-actin
Protocol: as §2, §3, §4

sheepshead minnow = conditions: acute toxicity, ref Gibbons et al., 2015; cited from earlier work
[3] = ref Mason et al., 2013, cited from earlier work

| Compound | EC50 (zebrafish embryos [1]) | toxicity to zebrafish embryos, individually (zebrafish embryos [1]) | EC5 (95% CI) (zebrafish embryos [1]) | EC15 (95% CI) (zebrafish embryos [1]) | EC25 (95% CI) (zebrafish embryos [1]) | Embryonic toxicity (%) (zebrafish embryos [2]) | Relative fold change of gene expression, cyp1a1 (cyp1a1) | Relative fold change of gene expression, cyp1b1 (cyp1b1) | 50% lethal concentration (LC50) (sheepshead minnow) | half-life in sediment ([3]; sediment) | half-life in soil ([3]; soil) |
| --- | --- | --- | --- | --- | --- | --- | --- | --- | --- | --- | --- |
| CN/C(=N\[N+](=O)[O-])NCc1cnc(Cl)s1 [CLO, Clothianidin] | 411 µg/mL | toxic | 65.28 (N.C.–104.61) µg/mL | 255.72 (224.61–289.12) µg/mL | 292.89 (247.77–332.07) µg/mL | 12.5 ± 3.4% | 0.38±0.06^a | 1.36±0.34^a | 161 µg/mL | 56 days | up to 1,386 days |
| O=[N+]([O-])NC1=NCCN1Cc1ccc(Cl)nc1 [IMD, imidacloprid] | 268 µg/mL | toxic | 60.80 (N.C.–108.36) µg/mL | 145.69 (113.89–158.99) µg/mL | 175.04 (146.25–196.54) µg/mL | 12.5 ± 2.8% |  |  | 93.6 µg/mL |  |  |
